The results in this text go back to article PMC10348910, “Epigenetic reprogramming of cell cycle genes by ACK1 promotes breast cancer resistance to CDK4/6 inhibitor” (Oncogene, 2023).

Format in all cases: cell-based
Test [1] concerns CCNB1, CCNB2 and CDC20 protein. Kind of test: immunoblotting of CCNB1, CCNB2 and CDC20. As to conditions: breast cancer cell lysates. The source says:
Fig. 3 ACK1 inhibitor suppresses expression of cell cycle genes. A Cell lysates from vehicle or (R)-9b treated cells were immunoblotted using CCNB1, CCNB2 and CDC20 antibodies. B HCC-1395 and MDA-MB-231 cells were transfected with ACK1 and scrambled siRNAs, followed by qPCR using ACK1 primers, with 18S rRNA as internal control. C siRNA transfected cells were subjected to western blotting using ACK1 antibody, with Actin as loading control. RNA from silenced cells, (D) HCC-1395 and (E) MDA-MB-231 was subjected to qPCR using CCNB1, CCNB2 and CDC20 primers. 18S rRNA was used as housekeeping control. For (A) and (C), representative images of three independent experiments are shown. For (B, D, E), data are represented as the mean ± SEM. *p < 0.05, **p < 0.01, ***p < 0.001, unpaired two-tailed Student’s t test.
Vehicle or (R)-9b (5 µM, overnight in serum free media) treated cells were lysed by sonication in receptor lysis buffer (RLB) and lysates were fractionated by SDS-PAGE, and transferred onto a PVDF membrane (Immobilon). […]
In general terms: Immunoblotting shows a protein as a band on a membrane.

For test [2], the system named is normal breast cells, MCF10a. Nature of the test: cell cycle analysis, propidium iodide flow cytometry. Particulars: 48 h. As for the experimental part: (§1) A–F Breast cancer cells were treated with either vehicle or (R)-9b for 48 h; cells were harvested and processed for cell cycle analysis using propidium iodide staining, followed by flow cytometry. G BT549 and H MDA-MB-468 cells were treated with varying drug concentrations of palbociclib or (R)-9b for 96 h and the cell viability assessed using trypan blue exclusion method. I BT549, and J MDA-MB-468 cells were treated with 1 µM palbociclib or (R)-9b for 48 h and subjected to cell cycle analysis using propidium iodide staining, followed by flow-cytometry. Palbociclib-resistant MDA-MB-231 (K) and HCC-1395 (L) were generated and treated with varying drug concentrations of palbociclib or (R)-9b for 96 h and the cell viability assessed using trypan blue exclusion method.
(§2) For proliferation assay, 5 × 10^4 cells were plated in 6-well plate and treated with either vehicle (DMSO) or varying concentrations of (R)-9b or palbociclib in complete media for 96 h and number of viable cells were counted by trypan blue exclusion assay. Breast cancer cell lines were treated with vehicle or varying concentrations of (R)-9b for 72 h. The cells were harvested, washed 2 times with PBS and incubated with 3 ul of Annexin V-FITC antibody according to the manufacturers protocol (BD Biosciences). Five µl Propidium iodide was used to stain necrotic cells. The cells were acquired using the BD FACSCalibur machine (BD Biosciences) and data was analyzed using FlowJo software. Cell cycle analysis was performed as mentioned earlier. Briefly, vehicle or (R)-9b (48 h) treated cells were harvested by trypsinization, washed 2 times with PBS, and fixed using chilled 70% Ethanol for 1 h, followed by 2 washes with PBS. The cell pellets were treated with 50 µl RNase A (100 µg/ml; Sigma) for 15 min at 37 °C and Propidium Iodide (PI; 50 µg/ml, Sigma) was added to these cells, followed by acquisition using BD FACS Canto-II or FACSCalibur machines. The data were analyzed using FlowJo software.
On the technique in general: In flow cytometry, cells or beads pass a laser one at a time.

A further test has as its system breast cancer cell lines. The test is described as above. Particulars: 48 h. Here is the method: as §1, §2
Test [3] concerns Palbociclib-resistant MDA-MB-231. Nature of the test: proliferation assay, trypan blue exclusion. Particulars: palbociclib-resistant MDA-MB-231, 96 h. As for the experimental part: as §1
(§3) The mid-G1 phase is governed by CDK4 and CDK6, two serine/threonine kinases the catalytic activity of which is modulated by D-type cyclins (D1, D2, and D3). […]
(§4) For proliferation assay, 5 × 10^4 cells were plated in 6-well plate and treated with either vehicle (DMSO) or varying concentrations of (R)-9b or palbociclib in complete media for 96 h and number of viable cells were counted by trypan blue exclusion assay. […] The cells were acquired using the BD FACSCalibur machine (BD Biosciences) and data was analyzed using FlowJo software. […] The data were analyzed using FlowJo software.

Test [4] relates to Palbociclib-resistant HCC-1395. Kind of test: proliferation assay, trypan blue exclusion. As to conditions: palbociclib-resistant HCC-1395, 96 h. As for the experimental part: as §1, §3, §4

Turning to `CN1CCN(c2ccc(Nc3ncc(Cl)c(NC[C@H]4CCCO4)n3)cc2)CC1` [(R)-9b], in test [1], the “CCNB1, CCNB2 and CDC20 protein abundance” value is on record as “decrease in respective protein abundance”. The cell cycle effect result is recorded as “no G2/M arrest” in test [2]; “arrest in G2/M phase” in the test on breast cancer cell lines (MDA-MB-453, MCF7, HCC-1395, SKBR3 and T47D); “G2/M cell cycle arrest” with breast cancer cell lines (palbociclib-resistant BT549 and MDA-MB-468 cells, 1 µM). The “sensitivity (cell proliferation)” value in test [3] and in test [4] was “loss of proliferation” each time.
